Measured values: patent US12503475B2 (Centessa Pharmaceuticals (UK) Limited, priority 2020, dated 2025)

Molecular target: T1, human orexin type 2 receptor (hOX2R) (Homo sapiens, UniProt O43614)
T1 construct: expressed in transfected cells
T1 sequence (O43614 1-444): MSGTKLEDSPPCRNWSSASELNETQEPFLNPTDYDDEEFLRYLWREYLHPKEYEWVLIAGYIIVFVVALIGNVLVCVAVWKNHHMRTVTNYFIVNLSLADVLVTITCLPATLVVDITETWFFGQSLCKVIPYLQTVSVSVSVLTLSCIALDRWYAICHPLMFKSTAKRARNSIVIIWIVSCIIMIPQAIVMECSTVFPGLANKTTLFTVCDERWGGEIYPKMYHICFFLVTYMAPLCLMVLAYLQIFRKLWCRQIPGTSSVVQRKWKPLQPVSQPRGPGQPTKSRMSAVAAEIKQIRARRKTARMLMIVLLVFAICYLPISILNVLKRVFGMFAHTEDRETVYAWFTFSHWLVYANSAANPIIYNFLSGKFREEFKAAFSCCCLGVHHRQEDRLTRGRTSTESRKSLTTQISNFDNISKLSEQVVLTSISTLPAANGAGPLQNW
Test: Measurement of orexin type 2 receptor agonist activity (FLIPR calcium fluorescence)
Type: cell-based
Details: CHO cells expressing hOX2R, FLIPR calcium fluorescence; for EC50: read-out: hOx2 pEC50 (converted); for Emax: CHO, read-out: hOx2 Emax (%)
Description: The biological activity of the compounds of the present disclosure may be determined in cells stably expressing either orexin type 2 or orexin type 1 receptor. […] The agonist activity of a compound of the present disclosure may be determined by fluorescence value.
Stable cell line generation.
Measurement of orexin type 2 receptor agonist activity. […] As used herein, E. indicates the value at 10 μM concentration when orexin A is converted to a full agonist (maximum value of agonist activity. 100%).

Compound	EC50 [nM]	Emax [%]
CC[C@@](C)(O)C(=O)N1CC2(CC2)[C@H](NS(=O)(=O)CF)[C@@H]1Cc1cccc(-c2cccc(F)c2)c1F [Compound 379, N-((6S,7S)-6-((2,3′-difluoro-[1,1′-biphenyl]-3-yl)methyl)-5-((R)-2-hydroxy-2-methylbutanoyl)-5-azaspiro[2.4]heptan-7-yl)-1-fluoromethanesulfonamide]	1 to 10	90 to 100
O=C([C@H](O)C(F)F)N1CC2(CC2)[C@H](NS(=O)(=O)CF)[C@@H]1Cc1cc(F)cc(-c2ccccc2)c1F [Compound 360, N-((6S,7S)-5-((S)-3,3-difluoro-2-hydroxypropanoyl)-6-((2,5-difluoro-[1,1′-biphenyl]-3-yl)methyl)-5-azaspiro[2.4]heptan-7-yl)-1-fluoromethanesulfonamide]	1 to 10	90 to 100
COC(=O)N1CCC2(CC2)C(NS(C)(=O)=O)C1Cc1cccc(-c2ccccc2)c1 (racemic) [Compound 14, methyl 5-([1,1′-biphenyl]-3-ylmethyl)-4-(methylsulfonamido)-6-azaspiro[2.5]octane-6-carboxylate]	> 1000	90 to 100
COC[C@@H](O)C(=O)N1CC2(CC2)[C@H](NS(C)(=O)=O)[C@@H]1Cc1cccc(-c2ccccc2)c1 [Compound 63, N-((6S,7S)-6-([1,1′-biphenyl]-3-ylmethyl)-5-((R)-2-hydroxy-3-methoxypropanoyl)-5-azaspiro[2.4]heptan-7-yl)methanesulfonamide]	10 to 100	80 to 90
O=C([C@H]1CCO1)N1CC2(CC2)[C@H](NS(=O)(=O)CF)[C@@H]1Cc1cccc(-c2cc(F)ccc2F)c1F [Compound 169, 1-fluoro-N-((6S,7S)-5-((R)-oxetane-2-carbonyl)-6-((2,2′,5′-trifluoro-[1,1′-biphenyl]-3-yl)methyl)-5-azaspiro[2.4]heptan-7-yl)methanesulfonamide]	1 to 10	90 to 100
CC(C)S(=O)(=O)N[C@@H]1[C@H](Cc2cccc(-c3ccccc3)c2F)N(C(=O)[C@H]2CCO2)CC12CC2 [Compound 162, N-((6S,7S)-6-((2-fluoro-[1,1′-biphenyl]-3-yl)methyl)-5-((R)-oxetane-2-carbonyl)-5-azaspiro[2.4]heptan-7-yl)propane-2-sulfonamide]	1 to 10	90 to 100
CC(F)(F)CNC(=O)N1CC2(CC2)[C@H](NS(=O)(=O)CF)[C@@H]1Cc1cccc(-c2ccccc2)c1F [Compound 409]	1 to 10	90 to 100
COCCNC(=O)N1CC2(CC2)[C@H](NS(C)(=O)=O)[C@@H]1Cc1cccc(-c2ccccc2)c1F [Compound 311, (6S,7S)-6-((2-fluoro-[1,1′-biphenyl]-3-yl)methyl)-N-(2-methoxyethyl)-7-(methylsulfonamido)-5-azaspiro[2.4]heptane-5-carboxamide]	1 to 10	90 to 100
CN(C)S(=O)(=O)N[C@@H]1[C@H](Cc2cccc(-c3ccccc3)c2)N(C(=O)[C@H]2CCO2)CC12CC2 [Compound 95, N-((6S,7S)-6-([1,1′-biphenyl]-3-ylmethyl)-5-((R)-oxetane-2-carbonyl)-5-azaspiro[2.4]heptan-7-yl)-N,N-dimethylsulfuric diamide]	1 to 10	90 to 100
O=C([C@H]1CCO1)N1CC2(CC2)[C@H](NS(=O)(=O)C(F)F)[C@@H]1Cc1cccc(-c2cc(F)cc(F)c2)c1 [Compound 214, N-((6S,7S)-6-((3′,5′-difluoro-[1,1′-biphenyl]-3-yl)methyl)-5-((R)-oxetane-2-carbonyl)-5-azaspiro[2.4]heptan-7-yl)-1,1-difluoromethanesulfonamide]	1 to 10	90 to 100
O=C(NCC1(F)CC1)N1CC2(CC2)[C@H](NS(=O)(=O)C(F)F)[C@@H]1Cc1cc(F)cc(-c2cc(F)cc(F)c2)c1F [Compound 416, (6S,7S)-7-((difluoromethyl)sulfonamido)-N-((1-fluorocyclopropyl)methyl)-6-((2,3′,5,5′-tetrafluoro-[1,1′-biphenyl]-3-yl)methyl)-5-azaspiro[2.4]heptane-5-carboxamide]	1 to 10	90 to 100
CCCS(=O)(=O)N[C@@H]1[C@H](Cc2cccc(-c3ccccc3)c2)N(C(=O)[C@H]2CCO2)CC12CC2 [Compound 310, N-((6S,7S)-6-([1,1′-biphenyl]-3-ylmethyl)-5-((R)-oxetane-2-carbonyl)-5-azaspiro[2.4]heptan-7-yl)propane-1-sulfonamide]	10 to 100	90 to 100
C[C@H](CO)NC(=O)N1CC2(CC2)[C@H](NS(=O)(=O)C(F)F)[C@@H]1Cc1cccc(-c2ccccc2)c1F [Compound 364, (6S,7S)-7-((difluoromethyl)sulfonamido)-6-((2-fluoro-[1,1′-biphenyl]-3-yl)methyl)-N-((R)-1-hydroxypropan-2-yl)-5-azaspiro[2.4]heptane-5-carboxamide]	0.0794 to 1	90 to 100
C[C@H](F)C(=O)N1CC2(CC2)[C@H](NS(=O)(=O)CF)[C@@H]1Cc1cccc(-c2cc(F)cc(F)c2)c1F [Compound 232, 1-fluoro-N-((6S,7S)-5-((S)-2-fluoropropanoyl)-6-((2,3′,5′-trifluoro-[1,1′-biphenyl]-3-yl)methyl)-5-azaspiro[2.4]heptan-7-yl)methanesulfonamide]	0.0794 to 1	90 to 100
O=C([C@H]1CCO1)N1CC2(CC2)[C@H](NS(=O)(=O)C2COC2)[C@@H]1Cc1cccc(-c2ccccc2)c1 [Compound 77, N-((6S,7S)-6-([1,1′-biphenyl]-3-ylmethyl)-5-((R)-oxetane-2-carbonyl)-5-azaspiro[2.4]heptan-7-yl)oxetane-3-sulfonamide]	10 to 100	90 to 100
CC(C)S(=O)(=O)N[C@@H]1[C@H](Cc2cc(F)cc(-c3ccccc3)c2F)N(C(=O)[C@H]2CCO2)CC12CC2 [Compound 396]	1 to 10	90 to 100
CNS(=O)(=O)N[C@@H]1[C@H](Cc2cccc(-c3ccccc3)c2F)N(C(=O)[C@H]2CCO2)CC12CC2 [Compound 65, N-((6S,7S)-6-((2-fluoro-[1,1′-biphenyl]-3-yl)methyl)-5-((R)-oxetane-2-carbonyl)-5-azaspiro[2.4]heptan-7-yl)-N-methylsulfuric diamide]	1 to 10	90 to 100
C[C@H](CF)NC(=O)N1CC2(CC2)[C@H](NS(=O)(=O)CF)[C@@H]1Cc1cccc(-c2ccccc2)c1F [Compound 158]	0.0794 to 1	90 to 100
CN(C)S(=O)(=O)N[C@@H]1[C@H](Cc2cccc(-c3ccccc3)c2F)N(C(=O)[C@H]2CCO2)CC12CC2 [Compound 64, N-((6S,7S)-6-((2-fluoro-[1,1′-biphenyl]-3-yl)methyl)-5-((R)-oxetane-2-carbonyl)-5-azaspiro[2.4]heptan-7-yl)-N,N-dimethylsulfuric diamide]	0.0794 to 1	90 to 100
CS(=O)(=O)N[C@@H]1[C@H](Cc2cccc(-c3cccc(F)c3)c2)N(C(=O)[C@H]2CCO2)CC12CC2 [Compound 305]	10 to 100	90 to 100
O=C(NCCF)N1CC2(CC2)[C@H](NS(=O)(=O)CF)[C@@H]1Cc1cc(F)cc(-c2ccccc2)c1F [Compound 371, (6S,7S)-6-((2,5-difluoro-[1,1′-biphenyl]-3-yl)methyl)-N-(2-fluoroethyl)-7-((fluoromethyl)sulfonamido)-5-azaspiro[2.4]heptane-5-carboxamide]	1 to 10	90 to 100
